PMC6954720, “Discovery of retinoic acid receptor agonists as proliferators of cardiac progenitor cells through a phenotypic screening approach” (Stem Cells Translational Medicine, 2019)
Entries after “also recorded” stand apart in the source; their conditions may differ. Read-outs that look alike come from different tables or passages of the source.

Columns and labels:
[1] = tested on: human iPS-derived cardiac progenitor cells (CPCs); experiment: CPC proliferation assay (nuclear count); format: cell-based; details: for % Effect-normalised cell count: primary screen, relative to basic FGF 100 ng/mL
Experimental: (§1) The CPC proliferation assay including image and data analysis was performed as previously described.14 Cardiac progenitor marker antibodies are listed in Table S3.
A library of 10 000 compounds was screened in singlicate at three concentrations (0.1, 1.0, and 10 μM) in the CPC proliferation assay. Each plate contained neutral controls, 0.1% DMSO and maximum controls, 100 ng/mL human basic fibroblast growth factor (FGF; Invitrogen, ThermoFisher Scientific, Waltham, Massachusetts). The data were analyzed using the Genedata Screener software (Genedata, Inc, Basel, Switzerland). […] Results were calculated using the following calculation method: compound % effect = 100 × [(X − min)/(max − min)], where X represents a normalized value for the compound based on the neutral and maximum controls.
The library was screened in three‐point concentration response (CR) at 0.1, 1.0, and 10 μM measuring proliferation of human induced pluripotent stem (iPS)‐derived CPCs with nuclear count, as measured by Hoechst staining, as the primary endpoint.

[2] = tested on: human iPS-derived cardiac progenitor cells (CPCs); experiment: CPC proliferation assay (nuclear count); format: cell-based; details: 10-point concentration response
[3] = biological target: T1, RARG (gamma) ligand binding domain (Homo sapiens, UniProt P13631); experiment: RAR LBD-SRC1-2 coactivator peptide recruitment assay, agonist format, RARG; format: biochemical; details: for EC50: read-out: RARγ pEC50 (converted)
T1 sequence (P13631 185-419 limits assumed): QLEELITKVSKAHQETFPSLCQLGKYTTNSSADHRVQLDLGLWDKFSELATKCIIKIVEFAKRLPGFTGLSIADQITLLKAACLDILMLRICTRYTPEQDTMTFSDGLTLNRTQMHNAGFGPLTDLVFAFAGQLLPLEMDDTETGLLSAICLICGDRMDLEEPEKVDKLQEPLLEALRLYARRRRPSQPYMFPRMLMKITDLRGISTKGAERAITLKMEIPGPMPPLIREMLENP
Experimental: (§2) RAR ligand binding domain (LBD)‐SRC1‐2 coactivator peptide (NCOA1_677‐700 biotinylated) recruitment assays were established for the three RAR isotypes RARA (alpha), RARB (beta), and RARG (gamma) to determine relative potencies. […] A total of 0.4 μL of a fixed concentration range of test ligands dissolved in dimethyl sulphoxide (DMSO) was added to assay plates using an acoustic liquid dispenser. […] The raw data were transformed to % effect using the equation: compound % effect = 100 × [(X − min)/(max − min)], where X represents the effect in the presence of test compound and max and min are the effects in presence of the maximum and minimum controls, respectively.
(§3) The data were plotted to generate concentration‐response profiles and the concentration‐response curves were fit to the data using the four‐parameter logistic smart fit method in the Genedata Screener software (Genedata, Inc).

[4] = biological target: T2, RARB (beta) ligand binding domain (Homo sapiens, UniProt P10826); experiment: RAR LBD-SRC1-2 coactivator peptide recruitment assay, agonist format, RARB; format: biochemical; details: for EC50: read-out: RARβ pEC50 (converted)
T2 sequence (P10826 183-417 limits assumed): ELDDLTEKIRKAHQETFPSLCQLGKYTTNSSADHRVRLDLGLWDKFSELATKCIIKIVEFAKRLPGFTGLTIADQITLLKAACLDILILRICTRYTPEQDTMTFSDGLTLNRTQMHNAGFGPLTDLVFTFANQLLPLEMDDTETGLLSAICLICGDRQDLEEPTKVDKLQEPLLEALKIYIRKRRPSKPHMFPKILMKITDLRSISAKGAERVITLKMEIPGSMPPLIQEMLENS
Experimental: as §2, §3

[5] = biological target: T3, RARA (alpha) ligand binding domain (Homo sapiens, UniProt P10276); experiment: RAR LBD-SRC1-2 coactivator peptide recruitment assay, agonist format, RARA; format: biochemical; details: for EC50: read-out: RARα pEC50 (converted)
T3 sequence (P10276 183-417 limits assumed): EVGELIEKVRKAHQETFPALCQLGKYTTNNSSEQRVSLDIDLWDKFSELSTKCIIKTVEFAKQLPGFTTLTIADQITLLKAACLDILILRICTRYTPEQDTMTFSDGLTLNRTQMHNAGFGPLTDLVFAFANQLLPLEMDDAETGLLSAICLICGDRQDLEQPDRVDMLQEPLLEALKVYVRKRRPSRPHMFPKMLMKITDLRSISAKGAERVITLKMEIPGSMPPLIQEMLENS
Experimental: as §2, §3

[6] = biological target: T3, RARA (alpha) ligand binding domain; experiment: RAR coactivator peptide recruitment assay, antagonist format, RARA; format: biochemical; details: for IC50: read-out: RARα pIC50 (converted)
Experimental: as §2, §3

[7] = biological target: T1, RARG (gamma) ligand binding domain; experiment: RAR coactivator peptide recruitment assay, antagonist format, RARG; format: biochemical; details: for IC50: 10 nM R-667, read-out: RARγ pIC50 (converted)
Experimental: as §2, §3

iPS-derived CPCs [8] = details: absence of RAR agonist
Source text: Cells were fixed and nuclei stained on day 4 postplating and 3 days postcompound addition. […] The data represent the mean of two independent experiments each conducted in quadruplicate; error bars indicate SEM. […] The data for CPCs and CFs are obtained from two independent RNA preparations from each cell type

[9] = biological target: T2, RARB (beta) ligand binding domain; experiment: RAR coactivator peptide recruitment assay, antagonist format, RARB; format: biochemical; details: for IC50: read-out: RARβ pIC50 (converted)
Experimental: as §2, §3

[10] = tested on: HuES6 hPSC-derived cardiac progenitors; experiment: HuES6-derived cardiac progenitors replated on day 5: cell number, RT-qPCR, immunocytochemistry; format: cell-based, human; details: for terminal cardiac differentiation, in words / expression of cardiac progenitor markers vs untreated: 1 μM, day-5 replated cells, 4 days; for expression of cardiac progenitor markers vs untreated: with the exception of ISL1; for effect on cell proliferation / cell numbers, in words: 1.0 μM, day-5 replated progenitors, 4 days of exposure
Experimental: Insulin and signaling agonists were omitted after 1 day. On days 2‐3, the nascent mesodermal cells were specified to the cardiac lineage using 0.2 μM C‐59 (R&D Tocris) supplementation. Culture medium was replaced daily.
Basal cardiac progenitor medium was composed of DMEM/F12 (ThermoFisher Scientific), insulin/transferrin/selenium supplement, 0.1% human serum albumin (Biological Industries Inc, Cromwell, Connecticut), 1× chemically defined lipids (ThermoFisher Scientific), and antibiotics. RAR agonists (1 μM) were added from the day of passaging the cells. Samples were harvested and monitored after 4 days of treatment.
Cell numbers per well were quantified following single‐cell dissociation with Accutase and using standard Neubauer counting chambers. RT‐qPCR and immunocytochemistry were performed according to standard procedures. RPL37A served as housekeeping gene for normalization.

iPS-derived CPCs [11] = experiment: Cardiac progenitor marker antibody staining of treated CPCs; format: cell-based, human; details: 40 nM, 3 days
Experimental: as §1
A key requirement of the screen was that the expanded CPCs must retain their progenitor phenotype.
Figure 2 Cardiac progenitor cells (CPCs) retain progenitor markers after retinoic acid receptor agonist treatment. […] Larger images are representative merged images of Hoechst nuclear stain in blue and immunofluorescence of the indicated progenitor marker in green. Insets show the progenitor marker staining in gray scale at 3.3‐fold higher magnification. Scale bars: 50 μm

[12] = tested on: RAR-responsive genes in CPCs; experiment: RNA seq analysis of AM580-treated CPCs; format: cell-based, human; details: 4-hour and 24-hour time points
Experimental: CPC was seeded in fibronectin‐coated 24‐well plates, 150 000 cells in 0.5 mL media per well. […] Cell media were removed after 4 hours or 24 hours, and the cells were lysed for RNA preparation using the MagMax Total RNA Isolation kit. Triplicate samples were prepared for each treatment and time point. RNA integrity and concentration were analyzed on a fragment analyzer with the standard sensitivity RNA kit (Agilent, Santa Clara, California). RNA quality number was 8.2 on average.
A total of 1000 ng RNA per sample was processed with the TruSeq stranded mRNA kit (Illumina, San Diego, California) following the instructions from the manufacturer. […] Samples were pooled, diluted, and denatured according to Illumina's recommendations and sequenced on a NextSeq500 (High 150 cycles kit, reading 2 × 75 cycles). On average, samples had 13M reads with 93% of reads with >Q30.
RNA‐Seq data were processed using the bcbio pipeline version 0.9.7. Hisat2 version 2.0.2‐β aligner was used to align reads to the human genome version hg38. […] Differential expression analysis was performed on feature counts using DESeq2.32 Data quality was assessed using MultiQC.33 Genes with the lowest expression levels (less than five counts in at least two samples) were removed prior to differential expression estimation since they can be considered as nonexpressed.

[13] = tested on: human cardiac fibroblasts (CFs); experiment: CF proliferation assay (nuclear count)
Experimental: To ensure that these molecules were not general proliferators of all cardiac cells, they were also tested in a human CF proliferation assay31 using nuclear count as the endpoint.

RAR = RAR coactivator recruitment assay (isotypes not separated); format: biochemical
Experimental: as §2, §3

[14] = iPSC-derived CPC proliferation, read-out: CPC pEC50 (converted)

| SMILES | CPC proliferation, result in words [1] | EC50 [2, 14] [µM] | RARγ pEC50 (% top effect): % top effect [3] [%] | EC50 [3] [µM] | maximal effect (% top effect) [4] [%] | EC50 [4] [µM] | EC50 [5] [µM] | IC50 [6] [µM] | IC50 [7] [µM] | IC50 [9] [µM] | terminal cardiac differentiation, in words [10] | expression of cardiac progenitor markers vs untreated [10] | effect on cell proliferation / cell numbers, in words [10] | also measured |
| --- | --- | --- | --- | --- | --- | --- | --- | --- | --- | --- | --- | --- | --- | --- |
| CC1=C(/C=C/C(C)=C\C=C\C(C)=C\C(=O)O)C(C)(C)CCC1 [9‐cis‐retinoic acid] | inactive | > 10 |  |  |  |  |  |  |  |  |  |  |  |  |
| CC1(C)CCC(C)(C)c2cc(C(=O)Nc3ccc(C(=O)O)c(F)c3)ccc21 [AGN 193312] | EC50 values in the low nanomolar range | 0.00794 | 88 | 0.1 | 100 | 0.01 | 0.00398 |  |  |  |  |  |  | top effect (% of maximum control) [5]: 159% |
| Cc1ccc(C2=CC(C)(C)Oc3c(Br)cc(C(=O)Nc4ccc(C(=O)O)c(F)c4)cc32)cc1 [AGN 194301] |  | > 10 |  | > 20 |  | > 20 | > 20 | 0.00251 | 0.02 | 0.00126 |  |  |  | RARα pIC50 (% top effect): % top effect ([6]; antagonist format, 10 nM ATRA): 108%; RARγ pIC50 (% top effect): % top effect ([7]; 10 nM R-667): 106%; effect on CPC proliferation of antagonist alone (iPS-derived CPCs [8]): did not proliferate the cells; also recorded: no effect on proliferation; toxicity to CPCs (iPS-derived CPCs [8]): no signs of toxicity; RARβ pIC50 (% top effect): % top effect ([9]; antagonist format, 10 nM TTNPB): 105% |
| CC1(C)CCC(C)(C)c2cc(NC(=O)c3ccc(C(=O)O)cc3)ccc21 [AM80] | EC50 values in the low nanomolar range | 0.00794 | 119 |  | 149 |  |  |  |  |  | pronounced inhibition of terminal cardiac differentiation | enhanced the expression of cardiac progenitor markers | strong positive effects on cell proliferation | expression of cardiac progenitor markers Nkx2.5, Islet1, Gata4, PDGFRα after treatment (iPS-derived CPCs [11]): retain expression |
| CC1(C)CCC(C)(C)c2cc(C(=O)Nc3ccc(C(=O)O)cc3)ccc21 [AM580] |  | 0.00631 | 99 |  | 104 |  |  |  |  |  |  |  |  | mRNA expression of RAR-responsive genes (RARB, RBP1, CRABP2, CYP26A1) [12]: significant increase; % Effect-normalised cell count ([1]; Log Concentration M -5 (10 μM)): 49.6%; % Effect-normalised cell count ([1]; Log Concentration M -6 (1.0 μM)): 76.4%; % Effect-normalised cell count ([1]; Log Concentration M -7 (0.1 μM)): 106%; EC50 ([2]; read-out: EC50, CPC proliferation): 0.005 µM; CF proliferation, result in words [13]: inactive; expression of cardiac progenitor markers Nkx2.5, Islet1, Gata4, PDGFRα after treatment (iPS-derived CPCs [11]): retain expression |
| Cc1cc2c(cc1-c1cc(/C=C/C(=O)O)ccc1O)C(C)(C)CCC2(C)C [CD 3254] | inactive | > 10 |  | > 20 |  | > 20 | > 20 | > 20 | > 20 | > 20 |  |  |  |  |
| CC1(C)CCC(C)(C)c2cc(C#Cc3ccc(C(=O)O)cc3)ccc21 [EC 23] | EC50 values in the low nanomolar range | 0.00126 |  |  |  |  |  |  |  |  | pronounced inhibition of terminal cardiac differentiation | enhanced the expression of cardiac progenitor markers | strong positive effects on cell proliferation |  |
| CC1=C(/C=C/C(C)=C/C=C/C(C)=C/CO)C(C)(C)CCC1 [Retinol] | no effect | > 10 |  | > 20 |  | > 20 | > 20 | > 20 | > 20 | > 20 |  |  |  | activity in RAR coactivator recruitment assay, in words (RAR): inactive |
| CC1(C)CCC(C)(C)c2cc(C3(c4ccc(C(=O)O)cc4)OCCO3)ccc21 [SR 11237] | inactive | > 10 |  | > 20 |  | > 20 | > 20 | > 20 |  | > 20 |  |  |  |  |
| C/C(=C\c1ccc(C(=O)O)cc1)c1ccc2c(c1)C(C)(C)CCC2(C)C [TTNPB] | EC50 values in the low nanomolar range | 0.00316 |  |  |  |  |  |  |  |  | pronounced inhibition of terminal cardiac differentiation | enhanced the expression of cardiac progenitor markers | strong positive effects on cell proliferation |  |
